Experimental data from patent US11485729B2, “Substituted pyridazinone compound” (Shenzhen TargetRx, Inc., priority 2018, dated 2022).

Test: not given
Conditions: preclinical toxicology, clinical phase 1 and phase II data; cited from earlier work

| SMILES | effect on the central thyroid axis, heart rate or bone | liver enzymes |
| --- | --- | --- |
| CC(C)c1cc(Oc2c(Cl)cc(-n3nc(C#N)c(=O)[nH]c3=O)cc2Cl)n[nH]c1=O [MGL-3196, 2-(3,5-dichloro-4-((5-isopropyl-6-oxo-1,6-dihydropyridazin-3-yl)oxy)phenyl)-3,5-dioxo-2,3,4,5-tetrahydro-1,2,4-triazine-6-carbonitrile, reference compound] | no inhibitory effect | no increase of the liver enzymes has been observed |

Test: Metabolic stability evaluation in human liver microsomes
Assay type: in vitro ADME
Conditions: pH 7.4, Human liver microsome, 0.5 mg/mL protein, 1 μM compound
Experimental: (2) Metabolic Stability Evaluation
Microsome assay: human liver microsomes: 0.5 mg/mL, Xenotech; rat liver microsomes: 0.5 mg/mL, Xenotech; coenzyme (NADPH/NADH): 1 mM, Sigma Life Science; magnesium chloride: 5 mM, 100 mM phosphate buffer (pH 7.4).
Preparation of stock solutions: Powder of the example compounds were accurately weighed and dissolved in DMSO to 5 mM respectively.
Preparation of phosphate buffer (100 mM, pH7.4): A pre-prepared 0.5M potassium dihydrogen phosphate (150 mL) was mixed with 0.5M dibasic potassium phosphate (700 mL). The pH of the mixture was adjusted to 7.4 with 0.5M dibasic potassium phosphate solution. The mixture was diluted 5-fold with ultrapure water before use, and magnesium chloride was added to obtain a phosphate buffer (100 mM) containing 100 mM potassium phosphate, 3.3 mM magnesium chloride, pH 7.4.
A NADPH regeneration system solution (containing 6.5 mM NADP, 16.5 mM G-6-P, 3 U/mL G-6-P D, 3.3 mM magnesium chloride) was prepared and placed on wet ice prior to use.
Preparation of stop solution: an acetonitrile solution containing 50 ng/mL propranolol hydrochloride and 200 ng/mL tolbutamide (internal standard). 25057.5 μL of phosphate buffer (pH 7.4) was taken into a 50 mL centrifuge tube, to which 812.5 μL of human liver microsomes were added, and mixed to obtain a liver microsome dilution with a protein concentration of 0.625 mg/mL. 25057.5 μL of phosphate buffer (pH 7.4) was taken into a 50 mL centrifuge tube, to which 812.5 μL of SD rat liver microsomes were added, and mixed to obtain a liver microsome dilution with a protein concentration of 0.625 mg/mL.
Incubation of the samples: The stock solutions of the respective compounds were respectively diluted to 0.25 mM with an aqueous solution containing 70% acetonitrile, and used as a working solution, ready for use. 398 μL of the dilutions of human liver microsomes and rat liver microsomes were added to 96-well incubation plates (N=2), respectively, and 2 μL of 0.25 mM working solution was added respectively and mixed.
Metabolic stability assay: 300 μL of pre-chilled stop solution was added to each well of 96-well deep well plates and placed on ice as stop plates. The 96-well incubation plates and NADPH regeneration system were placed in a 37° C. water bath, shaken at 100 rpm and pre-incubated for 5 min. 80 μL of incubation solution was taken out from each well of the incubation plates and added to the stop plates, mixed, and replenished with 20 μL of NADPH regeneration system solution as a 0-min sample. 80 μL of NADPH regeneration system solution was added to each well of the incubation plates to start the reaction and start counting. […] Separately, 100 μL of the reaction solutions was taken at 10, 30, and 90 min after the reaction, respectively, added to stop plates, and vortexed for 3 minutes to terminate the reaction. The stop plates were centrifuged at 5000×g at 4° C. for 10 min. 100 μL of the supernatant was added to a 96-well plate to which 100 μL of distilled water was previously added, mixed, and analyzed by LC-MS/MS.
Data analysis: The peak areas of the corresponding compounds and internal standard were detected by LC-MS/MS system, and the ratio of the peak area of the compounds to the internal standard was calculated.
The metabolic stability of the compounds in human and rat liver microsomes was evaluated by simultaneously testing and comparing the compounds disclosed herein and the non-deuterated compound. The non-deuterated compound MGL-3196 was used as a control sample.

| SMILES | half-life at 1 μM | microsomal CLint at 1 μM |
| --- | --- | --- |
| [2H]C([2H])([2H])C(C)c1cc(Oc2c(Cl)cc(-n3nc(C#N)c(=O)[nH]c3=O)cc2Cl)n[nH]c1=O (stereo not drawn) [Compound M-1, 2-(3,5-dichloro-4-((6-oxo-5-(propan-2-yl-1,1,1-d3)-1,6-dihydropyridazin-3-yl)oxy)phenyl)-3,5-dioxo-2,3,4,5-tetrahydro-1,2,4-triazine-6-carbonitrile] | > 16.7 h | 0.1 to 2 µL/min/mg |
| [2H]C([2H])([2H])C(c1cc(Oc2c(Cl)cc(-n3nc(C#N)c(=O)[nH]c3=O)cc2Cl)n[nH]c1=O)C([2H])([2H])[2H] [Compound M-2, 2-(3,5-dichloro-4-((6-oxo-5-(propan-2-yl-1,1,1,3,3,3-d6)-1,6-dihydropyridazin-3-yl)oxy)phenyl)-3,5-dioxo-2,3,4,5-tetrahydro-1,2,4-triazine-6-carbonitrile] | > 16.7 h | 0.1 to 2 µL/min/mg |
| CC(C)c1cc(Oc2c(Cl)cc(-n3nc(C#N)c(=O)[nH]c3=O)cc2Cl)n[nH]c1=O [MGL-3196, 2-(3,5-dichloro-4-((5-isopropyl-6-oxo-1,6-dihydropyridazin-3-yl)oxy)phenyl)-3,5-dioxo-2,3,4,5-tetrahydro-1,2,4-triazine-6-carbonitrile, reference compound] | < 8.33 h | 2.5 to 3 µL/min/mg |

Results, then the compound that gave them:

| half-life at 1 μM | microsomal CLint at 1 μM | SMILES |
| --- | --- | --- |
| > 16.7 h | 0.1 to 2 µL/min/mg | [2H]c1c(Cl)c(Oc2cc(C(C([2H])([2H])[2H])C([2H])([2H])[2H])c(=O)[nH]n2)c(Cl)c([2H])c1-n1nc(C#N)c(=O)[nH]c1=O [Compound M-3, 2-(3,5-dichloro-4-((6-oxo-5-(propan-2-yl-1,1,1,3,3,3-d6)-1,6-dihydropyridazin-3-yl)oxy)phenyl-2,6-d2)-3,5-dioxo-2,3,4,5-tetrahydro-1,2,4-triazine-6-carbonitrile] |
| > 16.7 h | 0.1 to 2 µL/min/mg | [2H]c1c(Cl)c(Oc2cc(C(C)C)c(=O)[nH]n2)c(Cl)c([2H])c1-n1nc(C#N)c(=O)[nH]c1=O [Compound M-4, 2-(3,5-dichloro-4-((5-isopropyl-6-oxo-1,6-dihydropyridazin-3-yl)oxy)phenyl-2,6-d2)-3,5-dioxo-2,3,4,5-tetrahydro-1,2,4-triazine-6-carbonitrile] |
